Experimental data published in ChEMBL document CHEMBL1201862, “PubChem BioAssay data set” (2004).
Calls of active or inactive are those of the source.

Assays:
[1] = A Cell Based Secondary Assay To Explore Cytotoxicity of Compounds that Sensitize Mycobacterium Tuberculosis to Beta-Lactam Antibiotics.; assay type: functional
[2] = molecular target: Procathepsin L (Homo sapiens, UniProt P07711); test: CTSL1 protease inhibition – biochemical, QFRET, 1536-well, counter-screen for M1/M17 aminopeptidase inhibitor project, dose response (AID 2214)
[3] = molecular target: T1, Aspartyl aminopeptidase (Plasmodium falciparum 3D7, UniProt Q8I2J3); test: Counterscreen for inhibitors of M1 and M17 aminopeptidases: QFRET-based biochemical high throughput dose response assay for inhibitors of the Plasmodium falciparum M18 Aspartyl Aminopeptidase (PFM18AAP). [Related PubChem assays: 1619 (Screening assay (M17LAP inhibitors).), 1445 (Screening assay (M1AAP inhibitors).)]
T1 sequence (Q8I2J3 whole entry): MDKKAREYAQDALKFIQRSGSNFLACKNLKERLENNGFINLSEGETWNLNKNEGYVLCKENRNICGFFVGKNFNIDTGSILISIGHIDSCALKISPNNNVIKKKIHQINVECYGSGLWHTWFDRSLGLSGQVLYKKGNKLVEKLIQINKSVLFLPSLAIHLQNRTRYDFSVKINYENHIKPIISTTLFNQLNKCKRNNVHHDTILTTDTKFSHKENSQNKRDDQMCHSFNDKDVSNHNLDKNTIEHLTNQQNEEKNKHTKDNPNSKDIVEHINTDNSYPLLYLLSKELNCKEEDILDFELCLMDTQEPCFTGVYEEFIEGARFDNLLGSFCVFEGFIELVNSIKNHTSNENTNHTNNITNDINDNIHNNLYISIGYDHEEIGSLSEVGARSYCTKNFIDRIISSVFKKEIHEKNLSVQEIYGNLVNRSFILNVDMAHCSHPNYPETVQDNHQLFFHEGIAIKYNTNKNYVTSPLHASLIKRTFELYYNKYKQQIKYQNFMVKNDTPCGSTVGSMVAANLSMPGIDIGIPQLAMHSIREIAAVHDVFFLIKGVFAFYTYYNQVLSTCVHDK

[4] = molecular target: T2, Aminopeptidase N (Plasmodium falciparum FcB1/Columbia, UniProt O96935); test: malaria alanyl aminopeptidase activity blockers – biochemical, fluorogenic H-Leu-NHMec substrate, 1536-well (AID 1445); set-up: species or system Plasmodium falciparum 3D7, 3D7
T2 sequence (O96935 whole entry): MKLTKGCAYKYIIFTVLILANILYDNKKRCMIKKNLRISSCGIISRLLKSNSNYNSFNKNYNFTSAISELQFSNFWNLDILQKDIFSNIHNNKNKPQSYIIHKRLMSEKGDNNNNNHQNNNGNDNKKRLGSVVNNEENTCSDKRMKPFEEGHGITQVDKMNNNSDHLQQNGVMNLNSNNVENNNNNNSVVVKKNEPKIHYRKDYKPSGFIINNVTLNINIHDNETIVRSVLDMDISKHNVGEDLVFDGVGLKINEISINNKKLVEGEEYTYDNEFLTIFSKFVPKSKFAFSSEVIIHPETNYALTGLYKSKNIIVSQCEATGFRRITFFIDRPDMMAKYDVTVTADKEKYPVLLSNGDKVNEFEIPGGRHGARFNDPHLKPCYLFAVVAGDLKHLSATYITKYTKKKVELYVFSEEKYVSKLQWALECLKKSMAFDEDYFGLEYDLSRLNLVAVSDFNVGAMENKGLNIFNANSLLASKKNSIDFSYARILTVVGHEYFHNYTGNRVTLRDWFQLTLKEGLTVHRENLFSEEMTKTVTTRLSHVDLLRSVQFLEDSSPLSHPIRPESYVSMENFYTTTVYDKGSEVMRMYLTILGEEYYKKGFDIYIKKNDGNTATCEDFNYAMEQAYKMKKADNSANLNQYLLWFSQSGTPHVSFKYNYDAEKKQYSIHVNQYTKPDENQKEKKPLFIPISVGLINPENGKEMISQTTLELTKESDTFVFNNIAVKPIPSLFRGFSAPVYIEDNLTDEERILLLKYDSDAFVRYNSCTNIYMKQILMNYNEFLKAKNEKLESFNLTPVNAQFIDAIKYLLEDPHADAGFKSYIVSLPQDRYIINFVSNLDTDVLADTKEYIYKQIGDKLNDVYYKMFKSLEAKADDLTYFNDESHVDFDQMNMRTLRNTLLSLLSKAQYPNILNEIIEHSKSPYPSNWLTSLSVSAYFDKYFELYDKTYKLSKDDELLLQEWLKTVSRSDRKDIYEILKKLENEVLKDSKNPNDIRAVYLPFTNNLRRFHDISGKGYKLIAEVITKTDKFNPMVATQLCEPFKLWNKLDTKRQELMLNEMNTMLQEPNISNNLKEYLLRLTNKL

[5] = viability of uninfected HEp-2 cells – cell-based, HTS, cytotoxicity control for RSV inhibitor project, dose response (AID 2410); assay type: functional; conditions: human respiratory syncytial virus
[6] = cells
[7] = molecular target: T3, High affinity choline transporter 1 (Homo sapiens, UniProt Q9GZV3); test: human choline transporter blockers, potency – cell-based, 5-point CRC, membrane potential dye, dose response (AID 504840); assay type: functional
T3 sequence (Q9GZV3 whole entry): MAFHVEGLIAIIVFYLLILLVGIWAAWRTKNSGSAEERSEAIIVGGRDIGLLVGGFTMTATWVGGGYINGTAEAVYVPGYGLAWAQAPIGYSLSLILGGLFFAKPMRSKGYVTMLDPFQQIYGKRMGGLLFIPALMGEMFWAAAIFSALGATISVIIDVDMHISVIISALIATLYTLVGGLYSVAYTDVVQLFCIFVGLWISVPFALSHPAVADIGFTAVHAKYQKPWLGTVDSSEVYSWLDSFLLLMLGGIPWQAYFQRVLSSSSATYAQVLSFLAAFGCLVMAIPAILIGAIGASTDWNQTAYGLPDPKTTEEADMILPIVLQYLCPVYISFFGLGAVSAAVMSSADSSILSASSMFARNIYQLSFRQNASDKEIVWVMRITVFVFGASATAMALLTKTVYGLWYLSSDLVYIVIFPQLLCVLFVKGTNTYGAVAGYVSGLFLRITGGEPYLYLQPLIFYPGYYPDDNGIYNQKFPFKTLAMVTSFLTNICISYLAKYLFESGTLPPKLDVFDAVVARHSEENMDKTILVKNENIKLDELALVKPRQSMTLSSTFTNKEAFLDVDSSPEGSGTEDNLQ

[8] = test system: Vero; test: mammalian cell viability reduction – secondary assay, cytotoxicity control for West Nile virus antiviral project, dose response (AID 1650); assay type: functional; conditions: Chlorocebus sabaeus
[9] = test system: Vero; test: cells; assay type: functional; conditions: Chlorocebus sabaeus
[10] = reduction of Shn3 3'UTR-driven luciferase in osteoblasts – cell-based, Clone20 osteoblasts, firefly luciferase, cherry-picked, dose response (AID 624132); assay type: functional;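 note: firefly luciferase luminescence from reporter carrying the Shn3 3'UTR in osteoblasts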
[11] = non-specific 3'UTR reporter inhibition in Clone20-Shn3RL – cell-based, Renilla luciferase, cherry-picked, counter-screen for Shn3 inhibitor project, dose response (AID 624133); assay type: functional
[12] = loss of viability in HepG2 cells – cell-based, CellTiter-Glo, cherry-picked, cytotoxicity control for Shn3 inhibitor project, dose response (AID 624134); assay type: functional
[13] = molecular target: T4, Replicative DNA helicase DnaB (Mycobacterium tuberculosis, UniProt P9WMR3); test: DnaB intein splicing inhibitors, dose response, biochemical, cell-free fluorescence (AID 449749); assay type: functional
T4 sequence (P9WMR3 whole entry): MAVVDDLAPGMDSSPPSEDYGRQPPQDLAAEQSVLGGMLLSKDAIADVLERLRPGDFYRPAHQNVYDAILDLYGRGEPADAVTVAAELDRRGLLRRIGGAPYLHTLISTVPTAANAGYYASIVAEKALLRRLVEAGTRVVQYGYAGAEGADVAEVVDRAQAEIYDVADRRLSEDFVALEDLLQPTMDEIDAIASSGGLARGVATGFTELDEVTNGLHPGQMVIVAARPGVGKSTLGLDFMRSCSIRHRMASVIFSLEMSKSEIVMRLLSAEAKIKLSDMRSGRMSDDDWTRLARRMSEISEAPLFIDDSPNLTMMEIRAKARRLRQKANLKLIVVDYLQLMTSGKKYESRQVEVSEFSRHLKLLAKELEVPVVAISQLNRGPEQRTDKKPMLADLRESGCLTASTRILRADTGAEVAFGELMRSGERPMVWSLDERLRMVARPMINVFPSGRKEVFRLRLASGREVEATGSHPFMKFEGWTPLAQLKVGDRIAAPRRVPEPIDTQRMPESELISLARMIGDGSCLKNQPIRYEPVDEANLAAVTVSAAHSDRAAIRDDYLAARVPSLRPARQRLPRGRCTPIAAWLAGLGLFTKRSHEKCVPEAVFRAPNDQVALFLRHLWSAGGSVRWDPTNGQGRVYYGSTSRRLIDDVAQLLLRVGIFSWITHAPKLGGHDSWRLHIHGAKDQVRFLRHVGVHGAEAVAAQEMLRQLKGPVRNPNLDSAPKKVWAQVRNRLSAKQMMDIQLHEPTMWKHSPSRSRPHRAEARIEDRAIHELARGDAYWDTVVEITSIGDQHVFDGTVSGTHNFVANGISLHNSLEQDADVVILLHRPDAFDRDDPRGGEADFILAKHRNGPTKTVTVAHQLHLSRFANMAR

[14] = molecular target: T5, Protein RecA (Mycobacterium tuberculosis, UniProt P9WHJ3); test: Fluorescence Cell-Free Homogeneous Dose Retest to Identify Inhibitors of RecA-Intein Splicing Activity. [Related pubchem assays (depositor defined):AID2097, AID2223, AID489010, AID492950]; assay type: functional
T5 sequence (P9WHJ3 whole entry): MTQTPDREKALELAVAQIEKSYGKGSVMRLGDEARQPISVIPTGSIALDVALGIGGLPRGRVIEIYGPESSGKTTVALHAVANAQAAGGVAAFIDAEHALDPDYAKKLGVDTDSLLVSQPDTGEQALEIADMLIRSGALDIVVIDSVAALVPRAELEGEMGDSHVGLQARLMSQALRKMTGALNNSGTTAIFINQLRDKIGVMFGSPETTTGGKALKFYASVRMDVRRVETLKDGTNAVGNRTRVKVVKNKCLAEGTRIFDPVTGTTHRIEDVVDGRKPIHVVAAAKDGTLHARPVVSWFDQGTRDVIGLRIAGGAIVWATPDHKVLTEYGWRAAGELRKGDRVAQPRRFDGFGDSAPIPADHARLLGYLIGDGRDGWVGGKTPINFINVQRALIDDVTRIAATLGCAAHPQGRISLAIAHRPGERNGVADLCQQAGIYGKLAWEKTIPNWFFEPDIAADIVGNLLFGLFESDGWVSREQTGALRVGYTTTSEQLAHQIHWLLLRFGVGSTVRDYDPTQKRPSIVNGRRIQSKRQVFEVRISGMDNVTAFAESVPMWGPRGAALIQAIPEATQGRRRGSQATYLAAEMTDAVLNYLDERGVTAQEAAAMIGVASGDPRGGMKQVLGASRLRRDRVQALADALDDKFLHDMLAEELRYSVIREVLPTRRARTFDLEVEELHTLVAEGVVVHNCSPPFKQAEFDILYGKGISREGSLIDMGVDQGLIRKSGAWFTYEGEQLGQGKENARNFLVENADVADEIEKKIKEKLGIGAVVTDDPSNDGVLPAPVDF

[15] = molecular target: T6, Leucine aminopeptidase (Plasmodium falciparum 3D7, UniProt Q8IL11); test: P. falciparum M17LAP inhibitors, primary screen, biochemical, fluorogenic H-Leu-NHMec substrate, 1536-well (AID 1619); assay type: functional
T6 sequence (Q8IL11 whole entry): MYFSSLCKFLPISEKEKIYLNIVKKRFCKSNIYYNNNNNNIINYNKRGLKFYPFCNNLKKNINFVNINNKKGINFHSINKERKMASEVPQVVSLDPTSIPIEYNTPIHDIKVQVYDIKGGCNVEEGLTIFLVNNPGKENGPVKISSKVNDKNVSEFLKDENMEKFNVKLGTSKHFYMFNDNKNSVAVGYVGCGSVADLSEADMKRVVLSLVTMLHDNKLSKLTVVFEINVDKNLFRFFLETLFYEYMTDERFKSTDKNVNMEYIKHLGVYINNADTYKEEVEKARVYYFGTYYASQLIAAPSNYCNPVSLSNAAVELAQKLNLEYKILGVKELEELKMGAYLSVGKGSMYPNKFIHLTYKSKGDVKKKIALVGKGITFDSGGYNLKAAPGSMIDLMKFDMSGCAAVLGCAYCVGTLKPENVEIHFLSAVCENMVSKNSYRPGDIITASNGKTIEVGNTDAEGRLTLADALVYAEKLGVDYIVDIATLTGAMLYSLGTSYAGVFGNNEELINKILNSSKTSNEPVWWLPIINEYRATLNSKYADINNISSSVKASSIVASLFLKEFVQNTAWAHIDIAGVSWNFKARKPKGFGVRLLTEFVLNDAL

[16] = molecular target: Peroxisome proliferator-activated receptor gamma/Nuclear receptor coactivator 1 (Homo sapiens, UniProt P37231); assay type: functional;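 note: agonist potency as compounds enhance coactivator SRC-1 recruitment to PPARgamma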
[17] = molecular target: Peroxisome proliferator-activated receptor gamma/Nuclear receptor coactivator 2 (Homo sapiens, UniProt P37231); assay type: functional;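 note: agonist potency for raising coactivator recruitment to the receptor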
[18] = molecular target: Peroxisome proliferator-activated receptor gamma/Nuclear receptor coactivator 3 (Homo sapiens, UniProt P37231); assay type: functional;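 note: agonist potency for raising coactivator recruitment to the receptor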
[19] = molecular target: Genome polyprotein (dengue virus type 2, UniProt P29990); test: flavivirus cap methylation enzyme inhibition – biochemical, confirmation dose response, primary screen (AID 588689); assay type: functional
Chain of Genome polyprotein (P29990 2492-3391 limits assumed): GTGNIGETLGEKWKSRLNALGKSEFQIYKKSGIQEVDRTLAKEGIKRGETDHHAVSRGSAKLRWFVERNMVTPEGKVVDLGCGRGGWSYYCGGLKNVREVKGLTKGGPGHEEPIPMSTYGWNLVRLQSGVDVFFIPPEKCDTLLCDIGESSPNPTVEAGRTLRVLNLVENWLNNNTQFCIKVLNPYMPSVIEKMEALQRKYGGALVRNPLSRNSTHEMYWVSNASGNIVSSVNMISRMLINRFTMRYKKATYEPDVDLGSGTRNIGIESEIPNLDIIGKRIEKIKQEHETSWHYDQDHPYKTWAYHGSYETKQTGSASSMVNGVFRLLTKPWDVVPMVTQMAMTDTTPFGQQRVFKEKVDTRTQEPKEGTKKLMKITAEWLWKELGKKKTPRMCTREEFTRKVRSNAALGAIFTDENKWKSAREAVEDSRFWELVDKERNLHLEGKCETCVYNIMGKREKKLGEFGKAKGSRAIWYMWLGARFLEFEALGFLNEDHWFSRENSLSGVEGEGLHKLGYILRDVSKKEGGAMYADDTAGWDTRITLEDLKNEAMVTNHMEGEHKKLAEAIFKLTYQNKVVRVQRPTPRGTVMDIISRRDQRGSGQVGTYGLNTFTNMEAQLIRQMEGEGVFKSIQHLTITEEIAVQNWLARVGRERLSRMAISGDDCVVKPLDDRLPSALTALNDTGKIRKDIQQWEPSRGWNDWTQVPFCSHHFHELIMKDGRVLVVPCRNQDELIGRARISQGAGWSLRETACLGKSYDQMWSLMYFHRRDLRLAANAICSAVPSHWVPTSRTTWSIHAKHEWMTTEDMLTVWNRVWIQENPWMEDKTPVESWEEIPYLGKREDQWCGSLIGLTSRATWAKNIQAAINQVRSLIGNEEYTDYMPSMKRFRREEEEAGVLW

Chain of Procathepsin L (P07711 whole entry): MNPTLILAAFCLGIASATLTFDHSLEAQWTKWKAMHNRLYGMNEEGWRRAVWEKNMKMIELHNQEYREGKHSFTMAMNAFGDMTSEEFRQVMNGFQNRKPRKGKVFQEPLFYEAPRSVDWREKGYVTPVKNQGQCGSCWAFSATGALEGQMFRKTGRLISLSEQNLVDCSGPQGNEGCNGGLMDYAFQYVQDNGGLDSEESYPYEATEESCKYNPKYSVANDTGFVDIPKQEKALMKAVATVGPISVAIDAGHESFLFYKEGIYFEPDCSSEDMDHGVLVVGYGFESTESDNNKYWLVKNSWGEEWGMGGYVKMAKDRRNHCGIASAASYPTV
Chain of Peroxisome proliferator-activated receptor gamma/Nuclear receptor coactivator 2 (P37231 whole entry): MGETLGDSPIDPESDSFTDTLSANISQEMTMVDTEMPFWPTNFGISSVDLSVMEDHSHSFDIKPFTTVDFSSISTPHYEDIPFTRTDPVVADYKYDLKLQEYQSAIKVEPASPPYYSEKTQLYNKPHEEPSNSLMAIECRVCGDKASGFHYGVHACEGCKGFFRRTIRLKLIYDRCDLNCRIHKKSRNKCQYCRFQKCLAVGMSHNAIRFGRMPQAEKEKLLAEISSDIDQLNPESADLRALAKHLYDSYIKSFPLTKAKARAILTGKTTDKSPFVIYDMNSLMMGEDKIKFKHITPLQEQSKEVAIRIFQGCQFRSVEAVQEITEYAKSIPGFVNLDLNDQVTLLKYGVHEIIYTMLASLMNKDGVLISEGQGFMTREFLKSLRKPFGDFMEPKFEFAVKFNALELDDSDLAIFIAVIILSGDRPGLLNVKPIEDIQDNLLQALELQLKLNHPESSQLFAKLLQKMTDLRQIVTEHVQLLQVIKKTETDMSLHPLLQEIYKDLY
Chain of Peroxisome proliferator-activated receptor gamma/Nuclear receptor coactivator 2 (Q15596 whole entry, further chain): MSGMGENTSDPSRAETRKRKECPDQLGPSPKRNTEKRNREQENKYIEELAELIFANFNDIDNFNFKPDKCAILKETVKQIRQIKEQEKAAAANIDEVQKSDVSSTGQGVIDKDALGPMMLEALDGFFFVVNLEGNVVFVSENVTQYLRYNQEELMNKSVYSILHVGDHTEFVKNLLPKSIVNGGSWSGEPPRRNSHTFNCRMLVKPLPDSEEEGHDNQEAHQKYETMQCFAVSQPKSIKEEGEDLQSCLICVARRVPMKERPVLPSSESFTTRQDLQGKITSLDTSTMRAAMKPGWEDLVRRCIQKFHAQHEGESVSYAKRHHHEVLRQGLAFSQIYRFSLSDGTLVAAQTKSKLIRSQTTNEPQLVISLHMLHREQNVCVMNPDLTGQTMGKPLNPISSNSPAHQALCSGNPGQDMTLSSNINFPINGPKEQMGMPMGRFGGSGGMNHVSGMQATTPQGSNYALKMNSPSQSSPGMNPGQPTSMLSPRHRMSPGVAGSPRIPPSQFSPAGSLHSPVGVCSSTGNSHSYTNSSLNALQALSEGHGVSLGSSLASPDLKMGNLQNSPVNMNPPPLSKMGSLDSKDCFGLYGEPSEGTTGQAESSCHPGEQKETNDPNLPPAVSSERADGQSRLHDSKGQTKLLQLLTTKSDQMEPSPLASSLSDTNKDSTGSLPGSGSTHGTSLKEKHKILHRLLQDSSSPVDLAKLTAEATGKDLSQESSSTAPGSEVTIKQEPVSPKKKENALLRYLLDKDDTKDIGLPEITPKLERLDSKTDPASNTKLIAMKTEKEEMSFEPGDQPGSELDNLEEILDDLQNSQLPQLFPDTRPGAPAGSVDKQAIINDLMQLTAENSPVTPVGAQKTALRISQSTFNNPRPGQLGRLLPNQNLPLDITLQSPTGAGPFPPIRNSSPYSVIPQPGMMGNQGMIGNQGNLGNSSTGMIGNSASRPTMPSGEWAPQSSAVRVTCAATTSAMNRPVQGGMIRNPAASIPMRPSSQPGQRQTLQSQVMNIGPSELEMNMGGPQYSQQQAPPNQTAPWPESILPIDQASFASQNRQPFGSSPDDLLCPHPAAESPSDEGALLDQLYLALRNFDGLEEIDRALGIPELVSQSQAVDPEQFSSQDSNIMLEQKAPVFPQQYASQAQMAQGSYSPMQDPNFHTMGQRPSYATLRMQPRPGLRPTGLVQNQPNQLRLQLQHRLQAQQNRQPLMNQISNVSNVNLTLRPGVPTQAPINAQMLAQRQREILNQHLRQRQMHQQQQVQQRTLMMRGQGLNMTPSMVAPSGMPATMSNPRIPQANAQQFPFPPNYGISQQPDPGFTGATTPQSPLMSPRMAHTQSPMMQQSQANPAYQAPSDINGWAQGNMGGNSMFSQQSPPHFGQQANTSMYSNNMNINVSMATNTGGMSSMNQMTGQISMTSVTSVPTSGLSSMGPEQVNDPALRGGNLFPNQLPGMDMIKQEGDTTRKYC

Cc1cc(F)ccc1NCC(=O)Nc1ccc(Br)cc1C
CC50 [1]: > 40 µM (active)

COc1ccccc1-c1nc2ccccc2c(=O)n1NC(=O)c1cccs1
IC50 [2]: > 59.6 µM (not active)
IC50 [3]: > 73.5 µM (not active)
IC50 [4]: 15.8 µM (active)

Cc1cc(C)c(-n2c(C)cc(/C=C3/NC(=O)NC3=O)c2C)c(C)c1
CC50 [5]: 11.2 µM (active)
IC50 [6]: 2.83 µM (active)

COCCN(C(=O)CSc1nnc(-c2ccc(C)c(C)c2)o1)c1c(N)n(CC(C)C)c(=O)[nH]c1=O
IC50 [7]: 14.8 µM (active)
IC50 [6]: 13.3 µM (active)

CCN(CC)CCNC(=O)CSc1c2c(nc3cc(Cl)ccc13)CCCC2
CC50 [8]: 18.8 µM (active)
CC50 [9]: > 25 µM (active)
AC50 [10]: 14.9 µM (active)
AC50 [11]: 25.5 µM (active)
AC50 [12]: > 70 µM (inactive)
AC50 [13]: 241 µM (active)
EC50 [14]: 11.8 µM (active)

CCc1ccc(NC(=O)C2CC=CCC2C(=O)O)cc1 (centres undefined)
IC50 [15]: 3.48 µM (active)
IC50 [2]: > 59.6 µM (not active)
IC50 [3]: > 73.5 µM (not active)

Cc1sc2nc3c(SC(C)C(=O)O)cc(C(=O)c4ccccc4O)cn3c(=O)c2c1C (centres undefined)
EC50 [16]: 14.7 µM (not active)
CC50 [5]: 42.7 µM (active)
IC50 [6]: 41.5 µM (active)
EC50 [17]: 25.1 µM (not active)
EC50 [18]: 25.9 µM (not active)
IC50 [4]: 57.8 µM (active)

CCOC(=O)c1c(NC(=O)C2C3C=CC(C3)C2C(=O)O)sc2c1CCC(CC)C2 (centres undefined)
IC50 [7]: 1.91 µM (active)
IC50 [15]: 7.67 µM (active)
IC50 [2]: > 59.6 µM (not active)
IC50 [19]: 42.4 µM (active)
IC50 [3]: > 73.5 µM (not active)
